Results as given in US20220031710A1, “USE OF ERK5 INHIBITORS FOR TREATING GLIOMAS IN PEDIATRIC SUBJECTS” (UNIVERSITY OF PITTSBURGH - OF THE COMMONWEALTH SYSTEM OF …, priority 2019, published 2022).

Tests used:
ERK5 [1] = biological target: T1, ERK5 (Homo sapiens, UniProt Q13164); test: Western blot of ERK5 phosphorylation sites in DIPG cells; assay type: cell-based; design: endogenous in cells; host or cells: DIPG-007 and DIPG-IV cells; conditions: DIPG-007 and DIPG-IV cells
Method: (§1) Cell pellets were lysed in PLC lysis buffer containing protease and phosphatase inhibitors (Roche Inc.). Protein lysates were quantified using the bicinchoninic acid (BCA) assay (Pierce Chemical Co., Rockford, Ill.). 30 μg of total protein lysate was loaded in 10% SDS-PAGE gels and electrophoresed. Proteins were transferred to PVDF membranes using a semi-dry transfer apparatus (Bio-Rad). Membranes were blocked for one hour and probed for various proteins overnight in 5% non-fat milk or 5% BSA in Tris Buffered Saline Solution, 0.5% Tween-20 (TBST) or Phosphate Buffered Saline Solution with 0.5% Tween-20 (PBST). Membranes were washed for 5 mins in TBST (3×) and incubated with horseradish peroxidase-conjugated antibodies specific for the primary antibody (BioRad Laboratories, Inc., CA, USA). Binding was detected using Chemiluminescence Reagent Plus (PerkinElmer Inc., MA, USA).

ERK5 [2] = biological target: T1, ERK5; test: In vitro kinase assay of purified recombinant ERK5 and MYC; assay type: biochemical; design: purchased ThermoFisher Scientific A32872; conditions: 200 μM ATP, 30 minutes at 30° C.
Method: Purified active recombinant ERK5 protein was purchased from ThermoFisher Scientific (Cat #A32872) and purified recombinant MYC was purchased from Abcam (Cat #ab84132). Purified ERK5 and MYC were resuspended in 40 μl of 1× kinase buffer supplemented with 200 μM ATP, 0.25 μg substrate, and 1.0 μg purified recombinant and active kinase. Samples were incubated in the presence or absence of ERK5 inhibitors for 30 minutes at 30° C. The reaction was terminated with 20 μl 3×SDS sample buffer. Samples were then boiled at 100° C. for 5 minutes and then evaluated by western blotting using a phospho MYC ser62 antibody (1:1000). 1× Kinase Buffer recipe: 25 mM Tris (pH 7.5), 5 mM β-glycerophosphate, 2 mM DTT, 0.1 mM Na3VO4, 10 mM MgCl2.

CNMC-XD-760 = test: Alamar blue viability EC50 in H3 wildtype DIPG cell line; assay type: cell-based, human; conditions: CNMC-XD-760 (DIPG histone wildtype H3) compared to H3 mutant DIPG cells and hemispheric pGBM cells; 96 h
Method: Direct cell counts were performed using the Countess II FL Automated Cell Counter (ThermoFisher Scientific). Alamar blue viability (ThermoFisher Scientific) and the 5-bromo-2′-deoxyuridine (BrdU) incorporated cell proliferation assay (Cell Signaling Technology Cat #6813) were performed using the manufacturer's standard protocol. EC50 curve analysis was performed using raw fluorescent Alamar blue values that were inputted into PRISM 7.0. Drug concentrations were log 10 transformed and values normalized to percent viability with respect to vehicle treated cells. EC50 values were interpolated from a log inhibitor vs. normalized response with variable slope using a least square fit model.

[3] = test system: DIPG-007, DIPG-IV, SF8628, and DIPG-13p cells; test: Alamar blue viability EC50 dose response in H3K27M DIPG cells; assay type: cell-based; conditions: Homo sapiens, 96 h, SF8628, DIPG-13p cells, lowest of the ERK5 inhibitors tested
Method: Human Neural Stem Cells (H9 hESC-Derived) were purchased from Invitrogen and grown in DMEM/F12 containing penicillin/streptomycin/amphotericin B (1% vol/vol) supplemented with N2 (2% vol/vol; Invitrogen), EGF (20 ng/ml; Invitrogen), and FGF-2 (20 ng/ml; Invitrogen). DIPG cell lines (all with the H3K27M mutation) SU-DIPG-IV (DIPG-IV), SU-DIPG-13p (DIPG-13p), and HSJD-DIPG-007 (DIPG-007) were grown and passaged in DIPG medium as previously reported (Grasso et al., Nature medicine 2015; 21:555-9; Nagaraja et al., Cancer cell 2017; 31:635-52 e6; Vinci et al., Nature medicine 2018). SF8628 and immortalized NHAs were grown in DMEM (Invitrogen) supplemented with 10% FBS (Invitrogen). All cell lines were confirmed by STR profiling and tested mycoplasma negative by PCR. All tumor-derived cell lines used are described in Table 2.
Direct cell counts were performed using the Countess II FL Automated Cell Counter (ThermoFisher Scientific). Alamar blue viability (ThermoFisher Scientific) and the 5-bromo-2′-deoxyuridine (BrdU) incorporated cell proliferation assay (Cell Signaling Technology Cat #6813) were performed using the manufacturer's standard protocol. EC50 curve analysis was performed using raw fluorescent Alamar blue values that were inputted into PRISM 7.0. Drug concentrations were log 10 transformed and values normalized to percent viability with respect to vehicle treated cells. […]

MYC = test: Western blot of phospho MYC S62 and total MYC in DIPG cells; assay type: cell-based, human; conditions: DIPG-IV and SF8628 cells; 500 nM
Method: as §1

ERK5 [4] = biological target: T1, ERK5; test: Western blot of tumor lysates from treated mice (pERK5, cleaved PARP); assay type: in vivo; design: from tissue; host or cells: Tumour lysates from orthotopic DIPG xenografts (SF8628 or DIPG-13p) in NOD-SCID mice; conditions: mice sacrificed after 5 days of treatment
Method: as §1, with “MA, USA). Antibodies were used at the following dilutions:” for “MA, USA).”
All animal procedures were carried out ethically according to animal user protocols approved by Institutional Animal Care Committee (IACUC). 4-6 week-old non-obese diabetic severe combined immune deficiency male or female mice (NOD-SCID-Prkdc^scid) were injected with 1×10^5 SU-DIPG-13p cells or 1×10^5 SF8628 DIPG cells. […]

T1 sequence (Q13164 whole entry): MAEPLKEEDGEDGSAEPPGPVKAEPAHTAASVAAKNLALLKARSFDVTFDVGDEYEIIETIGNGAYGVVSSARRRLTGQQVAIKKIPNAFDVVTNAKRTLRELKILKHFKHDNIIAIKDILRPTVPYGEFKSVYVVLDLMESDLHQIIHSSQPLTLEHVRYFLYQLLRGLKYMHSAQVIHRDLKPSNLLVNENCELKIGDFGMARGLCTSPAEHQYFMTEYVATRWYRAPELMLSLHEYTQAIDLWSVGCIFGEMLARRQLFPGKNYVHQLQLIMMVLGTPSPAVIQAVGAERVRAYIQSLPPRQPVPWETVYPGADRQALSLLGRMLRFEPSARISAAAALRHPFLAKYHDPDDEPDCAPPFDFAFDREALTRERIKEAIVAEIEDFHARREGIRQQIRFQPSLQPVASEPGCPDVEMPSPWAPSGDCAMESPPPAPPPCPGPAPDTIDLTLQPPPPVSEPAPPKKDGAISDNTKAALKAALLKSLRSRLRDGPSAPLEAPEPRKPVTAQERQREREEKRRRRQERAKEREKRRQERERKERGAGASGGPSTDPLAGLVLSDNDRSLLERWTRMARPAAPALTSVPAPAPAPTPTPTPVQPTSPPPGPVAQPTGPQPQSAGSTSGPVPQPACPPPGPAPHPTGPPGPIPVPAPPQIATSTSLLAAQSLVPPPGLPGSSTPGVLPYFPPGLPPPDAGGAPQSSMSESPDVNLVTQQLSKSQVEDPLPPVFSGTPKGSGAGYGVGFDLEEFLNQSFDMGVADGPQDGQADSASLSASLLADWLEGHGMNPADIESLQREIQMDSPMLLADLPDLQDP

SMILES: CCOc1cc(C(=O)N2CCC(N3CCN(C)CC3)CC2)ccc1Nc1ncc2c(n1)N(C1CCCC1)c1ccccc1C(=O)N2C [ERK5-IN-1, 11-cyclopentyl-2-[[2-ethoxy-4-[[4-(4-methyl-1-piperazinyl)-1-piperidinyl]carbonyl]phenyl]amino]-5,11-dihydro-5-methyl-6H-pyrimido[4,5b][1,4]benzodiazepin-6-one]
- ERK5 Thr218/Tyr220 phosphorylation (regulated by MEK5) (ERK5 [1]): did not inhibit
- ERK5 auto-phosphorylation and ERK5 activity sites (Ser731 and Thr733) (ERK5 [1]; at 100 nM): inhibit
- Phosphorylation of MYC(S62) (ERK5 [2]): inhibited
- EC50 values for ERK5-IN-1 (CNMC-XD-760): highest EC50 values
- EC50 [3]: 500 to 1000 nM
- phospho and total MYC (MYC): reduced
- apoptosis by cleaved PARP in vivo (ERK5 [4]): induction of apoptosis
- in vivo ERK5 auto-phosphorylation (ERK5 [4]): inhibition of ERK5 auto-phosphorylation
